Here are results for eight compounds from PubChem BioAssay AID651851 (Broad Institute, 2012).

Activity calls are given as the source filed them. No rule for the calls is given here.

Test system in one test: not listed separately
The test can be described thus: growth inhibition of replicating M. tuberculosis, dose response, counter-screen, log phase (AID 651851). Particulars: Mycobacterium tuberculosis log-phase replicating growth inhibition. In general terms: The purpose of a counterscreen is to sort out artefacts and off-target activity.
In the case of `Clc1ccc(-c2nnc(SCc3cn(Cc4ccccc4)nn3)o2)cc1`, the result was inactive. On the same count and under the same terms, the entry for `Fc1ccc(Cn2cc(CSc3nnc(-c4ccc(Cl)cc4)o3)nn2)cc1` is “inactive”.

A further test relates to Mycobacterium tuberculosis log-phase replicating growth inhibition. Described as above.
Conditions: not given
In the case of `O=S(=O)(Cc1cn(Cc2ccccc2)nn1)c1nnc(-c2ccc(Cl)cc2)o1`, the IC90 is 62 µM. Take `O=S(Cc1cn(Cc2ccccc2)nn1)c1nnc(-c2ccc(Cl)cc2)o1` (stereo not drawn): the IC90 is 62 µM. The same measure, in the same setting: for `O=S(Cc1cn(Cc2ccc(F)cc2)nn1)c1nnc(-c2ccc(Cl)cc2)o1` (stereo not drawn) the value was 62 µM; for `c1ccc(CSc2nnc(-c3ccccc3)o2)cc1`, 250 µM.

Consider `O=S(Cc1ccccc1)c1nnc(-c2ccccc2)o1` (stereo not drawn), for which the IC90 is 31 µM.

With `O=S(=O)(Cc1ccccc1)c1nnc(-c2ccccc2)o1`, the IC90 is 62 µM.

By IC90 is commonly meant the concentration at which the effect reaches the 90% level.
